ChEMBL document CHEMBL4396912 (Eur J Med Chem, 2019)
Calls of active or inactive are those of the source. The rule behind the calls is not given here.

Experiments:
[1] = biological target: Insulin-degrading enzyme (Homo sapiens) (UniProt P14735); experiment: Inhibition of human recombinant IDE expressed in Escherichia coli BL21 (DE3) cells using ATTO 655- Cys-Lys-Leu-Val-Phe-Phe-Ala-Glu-Asp-Trp as substrate at 100 uM preincubated for 10 mins followed by substrate addition and measured after 30 mins by spectrophotometric analysis relative to control
[2] = biological target: Insulin-degrading enzyme (Homo sapiens) (UniProt P14735); experiment: Irreversible inhibition of human recombinant IDE expressed in Escherichia coli BL21 (DE3) cells using ATTO 655- Cys-Lys-Leu-Val-Phe-Phe-Ala-Glu-Asp-Trp as substrate preincubated for 30 mins followed by 100 fold compound dilution by spectrophotometric analysis
[3] = biological target: Insulin-degrading enzyme (Homo sapiens) (UniProt P14735); details: 2 mM
[4] = biological target: Insulin-degrading enzyme (Homo sapiens) (UniProt P14735); details: HepG2, 30 uM
Insulin-degrading enzyme [5] = biological target: Insulin-degrading enzyme (Homo sapiens, UniProt P14735, C110L/C171S/C178A/C257V/C414L/C573N/C590S/C789S/C812A/C819A/C904S/C966N/C974A); experiment: biochemical
Insulin-degrading enzyme (Homo sapiens, UniProt P14735, C110L/C171S/C178A/C257V/C414L/C573N/C590S/C789S/C812A/C819A/C904S/C966N/C974A), sequence (P14735 whole entry C110L/C171S/C178A/C257V/C414L/C573N/C590S/C789S/C812A/C819A/C904S/C966N/C974A): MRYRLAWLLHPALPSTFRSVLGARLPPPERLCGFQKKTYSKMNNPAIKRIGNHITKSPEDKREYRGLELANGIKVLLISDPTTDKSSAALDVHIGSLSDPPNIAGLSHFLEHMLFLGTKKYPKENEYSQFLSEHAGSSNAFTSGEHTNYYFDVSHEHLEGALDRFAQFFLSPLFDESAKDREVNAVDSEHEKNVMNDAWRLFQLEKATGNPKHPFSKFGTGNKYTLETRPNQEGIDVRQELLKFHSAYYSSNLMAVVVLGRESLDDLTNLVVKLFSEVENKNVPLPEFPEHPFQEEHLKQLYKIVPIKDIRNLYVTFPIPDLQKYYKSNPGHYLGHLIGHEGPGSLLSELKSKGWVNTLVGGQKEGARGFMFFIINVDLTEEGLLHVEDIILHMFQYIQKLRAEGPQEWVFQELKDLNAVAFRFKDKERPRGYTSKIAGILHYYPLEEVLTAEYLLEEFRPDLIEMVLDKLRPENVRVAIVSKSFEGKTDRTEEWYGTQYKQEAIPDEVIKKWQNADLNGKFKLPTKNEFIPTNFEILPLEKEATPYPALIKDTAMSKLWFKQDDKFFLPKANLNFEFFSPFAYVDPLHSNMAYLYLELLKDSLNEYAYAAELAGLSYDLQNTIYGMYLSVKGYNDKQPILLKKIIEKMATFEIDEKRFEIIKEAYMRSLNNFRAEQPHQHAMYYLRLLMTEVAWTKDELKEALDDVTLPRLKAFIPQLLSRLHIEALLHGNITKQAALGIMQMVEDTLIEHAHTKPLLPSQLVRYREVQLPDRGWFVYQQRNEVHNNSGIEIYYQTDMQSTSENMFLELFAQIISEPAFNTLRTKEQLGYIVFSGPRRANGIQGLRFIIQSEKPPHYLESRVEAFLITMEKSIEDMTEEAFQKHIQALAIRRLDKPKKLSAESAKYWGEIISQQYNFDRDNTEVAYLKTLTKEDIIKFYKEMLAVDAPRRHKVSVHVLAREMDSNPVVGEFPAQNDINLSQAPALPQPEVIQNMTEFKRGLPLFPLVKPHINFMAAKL

Insulin-degrading enzyme [6] = biological target: T1, Insulin-degrading enzyme (Homo sapiens, UniProt P14735); experiment: Inhibition of human recombinant IDE expressed in Escherichia coli BL21 (DE3) cells using ATTO 655- Cys-Lys-Leu-Val-Phe-Phe-Ala-Glu-Asp-Trp as substrate preincubated for 10 mins followed by substrate addition and measured after 30 mins by spectrophotometric analysis
T1 sequence (P14735 whole entry): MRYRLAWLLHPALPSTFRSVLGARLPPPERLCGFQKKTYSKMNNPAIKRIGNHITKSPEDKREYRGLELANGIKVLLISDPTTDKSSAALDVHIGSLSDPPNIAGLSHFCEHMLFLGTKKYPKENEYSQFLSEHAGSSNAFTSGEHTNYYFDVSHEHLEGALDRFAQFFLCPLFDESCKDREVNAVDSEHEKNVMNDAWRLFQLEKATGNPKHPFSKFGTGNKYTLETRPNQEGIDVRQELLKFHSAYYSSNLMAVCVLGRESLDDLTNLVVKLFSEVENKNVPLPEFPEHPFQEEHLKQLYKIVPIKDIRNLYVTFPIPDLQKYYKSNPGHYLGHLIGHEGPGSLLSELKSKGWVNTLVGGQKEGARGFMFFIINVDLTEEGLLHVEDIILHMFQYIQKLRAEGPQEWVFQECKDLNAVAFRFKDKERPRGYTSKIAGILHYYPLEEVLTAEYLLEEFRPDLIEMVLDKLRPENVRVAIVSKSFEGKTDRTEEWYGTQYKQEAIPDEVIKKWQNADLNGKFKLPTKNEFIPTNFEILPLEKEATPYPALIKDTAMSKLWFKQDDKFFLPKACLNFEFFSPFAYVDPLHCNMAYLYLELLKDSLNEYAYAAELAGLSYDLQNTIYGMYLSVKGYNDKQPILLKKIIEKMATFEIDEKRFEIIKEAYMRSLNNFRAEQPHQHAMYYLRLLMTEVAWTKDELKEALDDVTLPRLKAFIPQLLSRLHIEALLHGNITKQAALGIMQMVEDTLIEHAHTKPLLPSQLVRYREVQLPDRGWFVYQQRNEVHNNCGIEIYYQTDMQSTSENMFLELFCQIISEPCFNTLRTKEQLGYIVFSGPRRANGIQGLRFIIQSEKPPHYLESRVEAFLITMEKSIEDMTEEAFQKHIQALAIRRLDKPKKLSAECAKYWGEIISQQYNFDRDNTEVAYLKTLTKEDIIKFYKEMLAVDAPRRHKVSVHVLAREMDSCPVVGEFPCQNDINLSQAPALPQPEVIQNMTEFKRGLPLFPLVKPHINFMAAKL

## COc1ccc2[nH]c([S+]([O-])Cc3ncc(C)c(OC)c3C)nc2c1 (configuration not stated)
[1]
  inhibition: 41%

## Cc1c(OCC(F)(F)F)ccnc1C[S+]([O-])c1nc2ccccc2[nH]1 (configuration not stated)
[1]
  inhibition: 38%

## CCN1C(=O)C=CC1=O
[2]
  inhibition: Active

## COc1ccc2[nH]c([S+]([O-])Cc3ncc(C)c(OC)c3C)nc2n1 (configuration not stated)
[1]
  inhibition: 35%

## O=C(O)CN(CCN(CC(=O)O)CC(=O)O)CC(=O)O
[3]
  inhibition: 100%

## COc1ccnc(C[S+]([O-])c2nc3cc(OC(F)F)ccc3[nH]2)c1OC (configuration not stated)
[1]
  inhibition: 0%

## O=C(C[C@@H](Cc1ccc2ccccc2c1)n1cc(CNC(=O)c2ccc(F)cc2)nn1)NO
[4]
  deltaT: 6.4 °C
Insulin-degrading enzyme [5]
  IC50: 0.33 µM

## O=c1c2ccccc2[se]n1-c1ccccc1
[4]
  deltaT: 1.3 °C

## COCCCOc1ccnc(C[S+]([O-])c2nc3ccccc3[nH]2)c1C (configuration not stated) [RABEPRAZOLE]
[1]
  inhibition: 98%
Insulin-degrading enzyme [6]
  IC50: 11 µM

## O=c1c(O)c(-c2cc(O)c(O)c(O)c2)oc2cc(O)cc(O)c12 [MYRICETIN]
Insulin-degrading enzyme [6]
  IC50: 100 µM
